Results reported in US8916561B2, “Substituted quinoxaline compounds for the inhibition of PASK” (BioEnergenix, LLC, priority 2011, dated 2014).

Experiments:
[1] = biological target: T1, PASK (UniProt #Q96RG2; human recombinant N-terminal GST tagged construct, residues 879-1323) (Homo sapiens, UniProt Q96RG2); assay: PASK ATP Radiochemical Assay; format: biochemical; conditions: 33P-ATP radiochemical assay, Myelin Basic Protein substrate; read-out: IC50 Kinase Domain
T1 construct: human recombinant N-terminal GST tagged construct, residues 879-1323; GST (N); host or cells: insect cells
Method: Purified PASK (UniProt #Q96RG2; human recombinant N-terminal GST tagged construct, residues 879-1323) from insect cells (final concentration 5 nM) is added to freshly prepared Base Reaction Buffer containing 20 mM HEPES (pH 7.5), 10 mM MgCl2, 1 mM EGTA, 0.02% Brij35, 0.02 mg/ml BSA, 0.1 mM Na3VO4, 2 mM DTT, 1% DMSO and Myelin Basic Protein (20 μM final). Test compounds in DMSO are then added and the mixture, followed by delivery of ^33P-ATP (specific activity 0.01 μCi/μl final) to initiate the reaction. The kinase reaction is incubated for 120 min at room temperature. The entire reaction mixture is washed through onto a P81 Phosphocellulose paper and washed three times for 10 minutes in 75 mM phosphoric acid and once in methanol prior to drying and scintillation counting.

[2] = biological target: T2, PASK (Invitrogen) (Homo sapiens, UniProt Q96RG2); assay: PAS Kinase FRET Assay; format: biochemical; conditions: TR-FRET (665 nm/615 nm), Ulight-peptide substrate; read-out: IC50 Kinase Domain
T2 construct: IC50 Kinase Domain; purchased Invitrogen
Source text: The aim of the FRET assay is to determine the inhibition potential of test compounds on targeted kinase. This assay platform provides a homogenous screening method for measuring kinase activity by quantitating the amount of phospho-substrate in solution following a kinase reaction.
In the presence of kinase and ATP, the Ulight-peptide is phosphorylated and captured by an anti-phospho-substrate antibody, which brings the Eu chelate donor and Ulight acceptor dyes into close proximity. Upon excitation at 340 nm, the Eu chelate transfers its energy to the Ulight dye, resulting in a fluorescent light emission at 665 nm.
Titration of kinase at 1 mM ATP was achieved via the following protocol. After making serial three-fold dilutions of PASK (Invitrogen) in reaction buffer across the plate; 5 μl of kinase dilution and 5 μl substrate/ATP mix were added to the wells of the white Optiplate-384 (PerkinElmer). The contents of the plate were incubated at RT for 1 h. The reaction was stopped by adding 5 μl of stop solution to each test well followed by mixing and incubation at RT for 10 minutes. 5 μl of detection mix (detection antibody diluted in detection butler) was added; the contents of the plate were mixed and then incubated in the dark for 1 hour at RT. The signal was recorded at TR-FRET mode (665 nm/615 nm), The results were graphed to calculate the EC50.
Titration of ATP at the EC50 concentration of kinase to determine ATP Km,app. was performed using the following method. After making serial dilutions of ATP (Invitrogen), 5 μl of ATP dilution and 5 μl substrate/kinase mix were added to the wells of the white Optiplate-384 (PerkinElmer). The contents of the plate were and incubated at RT for 1 h. The reaction was stopped by adding 5 μl of stop solution to each test well followed by mixing and incubation at RT for 10 minutes. 5 μl of detection mix (detection antibody diluted in detection buffer) was added; the contents of the plate were mixed and then incubated in the dark for 1 hour at RT. The signal was recorded at TR-FRET mode (665 nm/615 nm). The results were graphed to calculate the EC50 as the ATP Km,app.
Compound screening was done via the following method. 10 mM stock solution of test compound in DMSO was prepared by dissolving test compound in DMSO at RT for 1 hour, and then sonicating at 100% output for 8 minutes. If compound is not soluble under this condition, it was diluted to 3 mM. Kinase reaction buffer was prepared containing 10 mM MgCl2, 50 mM HEPES, 1 EGTA, 0.01% TWEEN-20, 2 mM WT. Serial dilutions of the test compounds were prepared at 4× final assay concentrations using Freedom EVO200® dispensing system as follows: 12×10^−5M, 4×10^−5 M, 1.33×10^−5M, 4.44×10^−6 M. 1.48×10^−6 M, 4.92×10^−7 M, 1.65×10^−7 M, […], 1.82×10^−8 M, 6.09×10^−9, 2.03×10^−9 M. Test compounds (2.5 μl at 4× the final assay concentration) was added to wells using Freedom EVO200® dispensing system. As a positive control, 2.5 μl of positive compound was added to assay wells, and 2.5 μl of DMSO to assay wells as vehicle control. Kinase solution was prepared in reaction buffer at 2× final assay concentration. Kinase solution (5 μl) was added to each well of the assay plate. The substrate and ATP solution was prepared in kinase reaction buffer at 4× final assay concentration. The kinase reaction was started by adding 2.5 μl of substrate+ATP mix solution to each well of the assay plate. The plate is mixed on a plate shaker; then covered and allowed to react for 2 hours in the dark at 25° C. without shaking. The reaction was stopped by adding 5 μl of stop solution to each test well followed by mixing and incubation at RT for 10 minutes in the dark. 5 μl of detection mix (detection antibody diluted in detection buffer) was added; the contents of the plate were mixed and then incubated in the dark for 1 hour at RT. The signal was recorded at TR-FRET mode (665 nm/615 nm).

[3] = biological target: hPASK (Homo sapiens, UniProt Q96RG2); assay: Cell assay for hPASK activity, phospho-AKT substrate antibody; format: cell-based; parameters: expressed in transfected cells; host or cells: HEK293T; conditions: HEK293T cells transfected with V5-tagged PASK, phospho-AKT substrate antibody Western blot
Method: The assay applies the ability of PASK to autophoshorylate in vivo on the sequence recognized by phospho-Akt substrate antibody (110B7E, Cell Signaling). Cell line HEK293T is transfected with vector (pcDNA 3.1-PASK) expressing V5-tagged wilde-type of PASK. Transfected cells are then treated with putative inhibitors of PASK. Twenty-four hours post treatment cells are lysed and PASK is separated from cellular proteins by immunoprecipitation with V5-conjugated beads (Sigma). PASK is released from immunocomlexes, separated on the SDS-PAGE gel and transferred on nitrocellulose membrane. Fraction of PASK phosphorylated on phospho-AKT Substrate site(s) is determined by probing with phospho-AKT antibody and normalized to total PASK level present in the same immunoprecipitates. We have shown the correlation between phosphorylation of phospho-AKT Substrate sequence and inhibition of PASK activity in vivo.
HEK293T cells are maintained and propagated in 10 cm dish in 10 ml of DMEM/10% FBS, split and re-seeded in 6 well plate (10^6 cells/well) in 2 ml of DMEM/10% FBS. Cells are transfected 18 hours post plating with lug of construct expressing wild-type of hPASK using lipofectamine 2000 according to the manufacturers protocol (Invitrogen). Cells expressing PASK are treated either with DMSO or PASK inhibitors. […] Intensities of the bands are quantitated and data normalized.

Measured: IC50

hPASK, sequence (Q96RG2 whole entry): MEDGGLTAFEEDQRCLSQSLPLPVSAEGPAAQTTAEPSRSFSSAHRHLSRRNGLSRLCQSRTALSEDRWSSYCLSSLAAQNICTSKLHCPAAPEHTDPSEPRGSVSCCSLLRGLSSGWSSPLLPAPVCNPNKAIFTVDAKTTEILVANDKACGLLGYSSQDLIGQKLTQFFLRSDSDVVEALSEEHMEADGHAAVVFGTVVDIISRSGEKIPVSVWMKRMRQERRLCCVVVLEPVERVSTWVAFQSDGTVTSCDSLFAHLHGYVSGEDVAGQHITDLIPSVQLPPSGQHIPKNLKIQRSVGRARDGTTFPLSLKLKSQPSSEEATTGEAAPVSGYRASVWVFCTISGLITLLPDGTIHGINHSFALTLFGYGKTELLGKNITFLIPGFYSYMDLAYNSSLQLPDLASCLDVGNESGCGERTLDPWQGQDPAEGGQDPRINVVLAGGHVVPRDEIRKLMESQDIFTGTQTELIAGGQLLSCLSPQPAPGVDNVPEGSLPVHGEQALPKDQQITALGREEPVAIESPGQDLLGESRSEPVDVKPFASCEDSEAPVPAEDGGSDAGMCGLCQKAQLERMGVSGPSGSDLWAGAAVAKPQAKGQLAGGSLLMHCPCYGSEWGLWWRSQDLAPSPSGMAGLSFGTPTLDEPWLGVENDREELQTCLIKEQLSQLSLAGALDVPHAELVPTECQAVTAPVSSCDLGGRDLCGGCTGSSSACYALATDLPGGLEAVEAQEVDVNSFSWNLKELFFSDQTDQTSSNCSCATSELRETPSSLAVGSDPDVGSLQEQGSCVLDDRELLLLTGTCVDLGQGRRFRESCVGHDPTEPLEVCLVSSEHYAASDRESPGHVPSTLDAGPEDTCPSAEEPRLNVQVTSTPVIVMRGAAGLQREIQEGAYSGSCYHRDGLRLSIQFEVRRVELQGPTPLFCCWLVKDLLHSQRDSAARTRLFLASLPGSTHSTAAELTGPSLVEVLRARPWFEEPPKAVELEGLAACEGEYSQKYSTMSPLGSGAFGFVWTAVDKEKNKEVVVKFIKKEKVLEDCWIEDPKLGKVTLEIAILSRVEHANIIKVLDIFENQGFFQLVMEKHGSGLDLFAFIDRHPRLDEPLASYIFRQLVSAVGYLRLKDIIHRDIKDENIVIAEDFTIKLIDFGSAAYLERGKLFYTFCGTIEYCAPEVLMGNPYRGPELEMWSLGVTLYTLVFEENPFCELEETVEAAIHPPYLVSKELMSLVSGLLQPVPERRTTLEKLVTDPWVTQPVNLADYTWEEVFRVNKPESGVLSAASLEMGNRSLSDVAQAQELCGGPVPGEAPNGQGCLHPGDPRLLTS
T2 sequence (Q96RG2 999-1251 limits assumed): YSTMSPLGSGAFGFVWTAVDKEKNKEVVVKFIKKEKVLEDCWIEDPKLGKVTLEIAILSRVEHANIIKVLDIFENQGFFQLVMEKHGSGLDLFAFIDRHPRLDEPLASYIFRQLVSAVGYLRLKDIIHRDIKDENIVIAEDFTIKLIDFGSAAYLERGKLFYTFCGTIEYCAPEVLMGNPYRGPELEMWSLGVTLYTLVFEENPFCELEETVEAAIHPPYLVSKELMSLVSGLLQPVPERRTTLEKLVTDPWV
T1 sequence (Q96RG2 879-1323, stated change not applied): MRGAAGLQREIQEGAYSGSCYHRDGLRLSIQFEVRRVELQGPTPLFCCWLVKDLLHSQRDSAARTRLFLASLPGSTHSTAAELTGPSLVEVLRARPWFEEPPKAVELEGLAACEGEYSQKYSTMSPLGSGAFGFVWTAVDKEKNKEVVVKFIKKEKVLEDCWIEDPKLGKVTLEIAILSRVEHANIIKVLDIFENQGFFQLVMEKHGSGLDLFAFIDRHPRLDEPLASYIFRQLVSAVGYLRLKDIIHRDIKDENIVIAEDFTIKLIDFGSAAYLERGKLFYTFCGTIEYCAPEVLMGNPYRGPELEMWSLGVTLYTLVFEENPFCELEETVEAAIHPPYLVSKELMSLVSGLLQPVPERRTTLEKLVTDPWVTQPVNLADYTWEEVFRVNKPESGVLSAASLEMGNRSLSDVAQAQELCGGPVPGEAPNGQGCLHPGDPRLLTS

CC(C)N(C)c1nc2cc(C(N)=O)ccc2nc1-c1ccc(F)cc1 [Example 1, 2-(4-Fluorophenyl)-3-(isopropyl(methyl)amino)quinoxaline-6-carboxamide]
≤ 10 µM: all assays above
